Patent US8722849B2, “Polypeptides” (Novo Nordisk A/S, priority 2011, dated 2014)
Starred links: 1 amine or outer side, 2 acyl side, 3 side chain; linkers in the order of their positions; H or OH if unused. Positions of bridges follow the written chain, without caps; N, C: chain ends. Residues, ends and D or L forms follow the SMILES beside them. *: point of attachment. C20 diacid = O=C(O)CCCCCCCCCCCCCCCCCCC(=O)*; C18 diacid = O=C(O)CCCCCCCCCCCCCCCCC(=O)*; γGlu = O=C(O)[C@H](CCC(=O)[*:2])N[*:1]

Columns and labels:
[1] = target: T1, rat calcitonin (a) receptor (Rattus norvegicus, UniProt P32214); test: Assay (II)b functional cAMP FlashPlate assay, rat calcitonin receptor; type: cell-based; settings: Table 11; read-out: CTa receptor rat EC50
T1 construct: expressed in transfected cells; host or cells: BHK tk'ts 13
T1 sequence (P32214 25-479 isoform P32214-2 limits assumed): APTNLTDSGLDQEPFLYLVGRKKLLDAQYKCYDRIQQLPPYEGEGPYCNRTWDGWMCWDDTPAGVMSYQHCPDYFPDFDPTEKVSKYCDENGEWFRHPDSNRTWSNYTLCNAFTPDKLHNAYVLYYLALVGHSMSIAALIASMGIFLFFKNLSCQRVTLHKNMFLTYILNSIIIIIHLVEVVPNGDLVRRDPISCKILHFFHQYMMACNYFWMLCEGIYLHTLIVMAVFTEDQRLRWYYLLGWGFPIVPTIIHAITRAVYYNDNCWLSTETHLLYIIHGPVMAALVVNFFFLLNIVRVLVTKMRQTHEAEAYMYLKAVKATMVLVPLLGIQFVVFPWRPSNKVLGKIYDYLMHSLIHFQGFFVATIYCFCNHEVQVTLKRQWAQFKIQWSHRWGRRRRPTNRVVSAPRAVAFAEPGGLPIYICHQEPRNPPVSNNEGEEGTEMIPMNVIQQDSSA
How it was run: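 cAMP accumulation in transiently transfected BHK tk'ts 13 cells, 100.000 cells/well, expressing rat calcitonin(a) receptor or its RAMP3 co-expression form (amylin 3(a)): 30 min stimulation with IBMX, 24 hours post-transfection. Readout by competition of cellular versus radiolabelled cAMP in FlashPlates, scintillation counted after 3 h.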

[2] = Assay (III) ThT fibrillation assay for physical stability; type: physicochemical
How it was run: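 Freshly prepared formulations, pH-adjusted, with 1 μM ThT; four or eight replicates incubated at 37 °C under 960 rpm orbital shaking. Fluorescence (ex 444/em 485 nm) read every 20 min; […]. Peptide concentration measured by RP-HPLC before and after the run.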

Row | SMILES | EC50 [1] [nM] | ThT pH 4.0 lag time ([2]; Table 8) [h] | ThT pH 4.0 lag time ([2]; ThT fibrillation assay) [h] | ThT pH 4.0 lag time (h) ([2]; ThT fibrillation assay)
1 | CC[C@H](C)[C@H](NC(=O)[C@@H]1CCCN1C(=O)CNC(=O)[C@H](Cc1ccccc1)NC(=O)[C@H](CC(N)=O)NC(=O)[C@H](CC(N)=O)NC(=O)[C@H](CO)NC(=O)[C@H](CO)NC(=O)[C@H](Cc1c[nH]cn1)NC(=O)[C@H](CCCNC(=N)N)NC(=O)[C@H](CC(C)C)NC(=O)[C@H](Cc1ccccc1)NC(=O)[C@H](CCC(=O)O)NC(=O)[C@H](C)NC(=O)[C@H](CC(C)C)NC(=O)[C@H](CCCNC(=N)N)NC(=O)[C@H](CCC(N)=O)NC(=O)[C@@H](NC(=O)[C@H](C)NC(=O)[C@@H]1CSSC[C@H](NC(=O)[C@H](CCCCN)NC(=O)[C@H](CCC(=O)O)NC(=O)CC[C@H](NC(=O)CCCCCCCCCCCCCCCCC(=O)O)C(=O)O)C(=O)N[C@@H](CC(N)=O)C(=O)N[C@@H]([C@@H](C)O)C(=O)N[C@@H](C)C(=O)N[C@@H]([C@@H](C)O)C(=O)N1)[C@@H](C)O)C(=O)N[C@@H](CC(C)C)C(=O)N1CCC[C@H]1C(=O)N1CCC[C@H]1C(=O)N[C@H](C(=O)N[C@@H](CC(N)=O)C(=O)N[C@H](C(=O)NCC(=O)N[C@@H](CO)C(=O)N[C@@H](Cc1c[nH]cn1)C(=O)N[C@H](C(=O)N[C@@H](Cc1ccc(O)cc1)C(N)=O)[C@@H](C)O)C(C)C)[C@@H](C)O [Example 62, N-alpha-[(S)-4-Carboxy-4-(17-carboxyheptadecanoylamino)butyryl]-Glu-[Glu14,Arg17,His35]-pramlintide] ({C18 diacid-γGlu}-EKCNTATCATQRLAEFLRHSSNNFGPILPPTNVGSHTY-NH2; disulfide 3-8 (inferred); C-terminus assumed) | 17.6 | 30 | 30 | 30
2 | CC[C@H](C)[C@H](NC(=O)[C@@H]1CCCN1C(=O)CNC(=O)[C@H](Cc1ccccc1)NC(=O)[C@H](CC(N)=O)NC(=O)[C@H](CC(N)=O)NC(=O)[C@H](CO)NC(=O)[C@H](CO)NC(=O)[C@H](Cc1c[nH]cn1)NC(=O)[C@H](Cc1c[nH]cn1)NC(=O)[C@H](CC(C)C)NC(=O)[C@H](Cc1ccccc1)NC(=O)[C@H](CCC(=O)O)NC(=O)[C@H](C)NC(=O)[C@H](CC(C)C)NC(=O)[C@H](CCCNC(=N)N)NC(=O)[C@H](CCC(N)=O)NC(=O)[C@@H](NC(=O)[C@H](C)NC(=O)[C@@H]1CSSC[C@H](NC(=O)[C@H](Cc2c[nH]cn2)NC(=O)[C@H](Cc2c[nH]cn2)NC(=O)[C@H](Cc2c[nH]cn2)NC(=O)CC[C@H](NC(=O)CCCCCCCCCCCCCCCCCCC(=O)O)C(=O)O)C(=O)N[C@@H](CC(N)=O)C(=O)N[C@@H]([C@@H](C)O)C(=O)N[C@@H](C)C(=O)N[C@@H]([C@@H](C)O)C(=O)N1)[C@@H](C)O)C(=O)N[C@@H](CC(C)C)C(=O)N1CCC[C@H]1C(=O)N1CCC[C@H]1C(=O)N[C@H](C(=O)N[C@@H](CC(N)=O)C(=O)N[C@H](C(=O)NCC(=O)N[C@@H](CO)C(=O)N[C@@H](Cc1c[nH]cn1)C(=O)N[C@H](C(=O)N[C@@H](Cc1ccc(O)cc1)C(N)=O)[C@@H](C)O)C(C)C)[C@@H](C)O [Example 31, N-alpha-[(S)-4-Carboxy-4-(19-carboxynonadecanoylamino)butyryl]-His-His-[His1,Glu14,His17,His35]-pramlintide] ({C20 diacid-γGlu}-HHHCNTATCATQRLAEFLHHSSNNFGPILPPTNVGSHTY-NH2; disulfide 4-9 (inferred); C-terminus assumed) | 1.31 | – | >45 | >45
3 | CC(C)C[C@H](NC(=O)[C@H](CCCNC(=N)N)NC(=O)[C@H](CCC(N)=O)NC(=O)[C@@H](NC(=O)[C@H](C)NC(=O)[C@@H]1CSSC[C@H](NC(=O)[C@H](CCCCN)NC(=O)CC[C@H](NC(=O)CCCCCCCCCCCCCCCCCCC(=O)O)C(=O)O)C(=O)N[C@@H](CC(N)=O)C(=O)N[C@@H]([C@@H](C)O)C(=O)N[C@@H](C)C(=O)N[C@@H]([C@@H](C)O)C(=O)N1)[C@@H](C)O)C(=O)N[C@@H](C)C(=O)N[C@@H](CCC(=O)O)C(=O)N[C@@H](Cc1ccccc1)C(=O)N[C@@H](CC(C)C)C(=O)N[C@@H](CCCNC(=N)N)C(=O)N[C@@H](Cc1c[nH]cn1)C(=O)N[C@@H](CO)C(=O)N[C@@H](CO)C(=O)N[C@@H](CC(N)=O)C(=O)N[C@@H](CC(N)=O)C(=O)N[C@@H](Cc1ccccc1)C(=O)NCC(=O)N[C@@H](C)C(=O)N1CCC[C@H]1C(=O)N[C@@H](CC(C)C)C(=O)N[C@@H](CO)C(=O)N[C@@H](CO)C(=O)N[C@H](C(=O)N[C@@H](CC(N)=O)C(=O)N[C@H](C(=O)NCC(=O)N[C@@H](CO)C(=O)N[C@@H](Cc1c[nH]cn1)C(=O)N[C@H](C(=O)N[C@@H](Cc1ccc(O)cc1)C(N)=O)[C@@H](C)O)C(C)C)[C@@H](C)O [Example 65, N-alpha-[(S)-4-Carboxy-4-(19-carboxynonadecanoylamino)butyryl]-[Glu14,Arg17,Ala25,Pro26,Ser28,Ser29,His35]-pramlintide] ({C20 diacid-γGlu}-KCNTATCATQRLAEFLRHSSNNFGAPLSSTNVGSHTY-NH2; disulfide 2-7 (inferred); C-terminus assumed) | 5.35 | >45 | >45 | >45
4 | CC[C@H](C)[C@H](NC(=O)[C@@H]1CCCN1C(=O)CNC(=O)[C@H](Cc1ccccc1)NC(=O)[C@H](CC(N)=O)NC(=O)[C@H](CC(N)=O)NC(=O)[C@H](CO)NC(=O)[C@H](CO)NC(=O)[C@H](Cc1c[nH]cn1)NC(=O)[C@H](Cc1c[nH]cn1)NC(=O)[C@H](CC(C)C)NC(=O)[C@H](Cc1ccccc1)NC(=O)[C@H](CCC(=O)O)NC(=O)[C@H](C)NC(=O)[C@H](CC(C)C)NC(=O)[C@H](CCCNC(=N)N)NC(=O)[C@H](CCC(N)=O)NC(=O)[C@@H](NC(=O)[C@H](C)NC(=O)[C@@H]1CSSC[C@H](NC(=O)[C@H](Cc2c[nH]cn2)NC(=O)CC[C@H](NC(=O)CCCCCCCCCCCCCCCCCCC(=O)O)C(=O)O)C(=O)N[C@@H](CC(N)=O)C(=O)N[C@@H]([C@@H](C)O)C(=O)N[C@@H](C)C(=O)N[C@@H]([C@@H](C)O)C(=O)N1)[C@@H](C)O)C(=O)N[C@@H](CC(C)C)C(=O)N1CCC[C@H]1C(=O)N1CCC[C@H]1C(=O)N[C@H](C(=O)N[C@@H](CC(N)=O)C(=O)N[C@H](C(=O)NCC(=O)N[C@@H](CO)C(=O)N[C@@H](CC(N)=O)C(=O)N[C@H](C(=O)N[C@@H](Cc1ccc(O)cc1)C(N)=O)[C@@H](C)O)C(C)C)[C@@H](C)O [Example 18, N-alpha-[(S)-4-Carboxy-4-(19-carboxynonadecanoylamino)butyryl]-[His1,Glu14,His17]-pramlintide] ({C20 diacid-γGlu}-HCNTATCATQRLAEFLHHSSNNFGPILPPTNVGSNTY-NH2; disulfide 2-7 (inferred); C-terminus assumed) | 1.17 | – | – | –
5 | CC[C@H](C)[C@H](NC(=O)[C@@H]1CCCN1C(=O)CNC(=O)[C@H](Cc1ccccc1)NC(=O)[C@H](CC(N)=O)NC(=O)[C@H](CC(N)=O)NC(=O)[C@H](CO)NC(=O)[C@H](CO)NC(=O)[C@H](CCCNC(=N)N)NC(=O)[C@H](Cc1c[nH]cn1)NC(=O)[C@H](CC(C)C)NC(=O)[C@H](Cc1ccccc1)NC(=O)[C@H](CCC(=O)O)NC(=O)[C@H](C)NC(=O)[C@H](CC(C)C)NC(=O)[C@H](CCCNC(=N)N)NC(=O)[C@H](CCC(N)=O)NC(=O)[C@@H](NC(=O)[C@H](C)NC(=O)[C@@H]1CSSC[C@H](NC(=O)[C@H](CCC(=O)O)NC(=O)CC[C@H](NC(=O)CCCCCCCCCCCCCCCCCCC(=O)O)C(=O)O)C(=O)N[C@@H](CC(N)=O)C(=O)N[C@@H]([C@@H](C)O)C(=O)N[C@@H](C)C(=O)N[C@@H]([C@@H](C)O)C(=O)N1)[C@@H](C)O)C(=O)N[C@@H](CC(C)C)C(=O)N1CCC[C@H]1C(=O)N1CCC[C@H]1C(=O)N[C@H](C(=O)N[C@@H](CC(N)=O)C(=O)N[C@H](C(=O)NCC(=O)N[C@@H](CO)C(=O)N[C@@H](CC(N)=O)C(=O)N[C@H](C(=O)N1CCC[C@H]1C(N)=O)[C@@H](C)O)C(C)C)[C@@H](C)O [Example 10, N-alpha-[(S)-4-Carboxy-4-(19-carboxynonadecanoylamino)butyryl]-[Glu1,Glu14,His17,Arg18,Pro37]-pramlintide] ({C20 diacid-γGlu}-ECNTATCATQRLAEFLHRSSNNFGPILPPTNVGSNTP-NH2; disulfide 2-7) | 0.806 | – | – | –
